Measured values published in PubChem BioAssay (NCI).
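Grown in 96-well plates, cells were treated for 48 hours with each compound at five concentrations. Insufficient inhibition: endpoint recorded as highest concentration tested. TGI: concentration producing complete growth inhibition.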

How the values were obtained:
Assay in all cases: NCI-60 cell line screen, 48 h
[1] = test system: 786-0 renal
[2] = test system: A498 renal
[3] = test system: A549 NSCLC
[4] = test system: ACHN renal
[5] = test system: BT-549 breast
[6] = test system: CAKI-1 renal
[7] = test system: CCRF-CEM leukemia
[8] = test system: COLO 205 colon
[9] = test system: DU-145 prostate
[10] = test system: EKVX NSCLC
[11] = test system: HCC-2998 colon
[12] = test system: HCT-116 colon
[13] = test system: HCT-15 colon
[14] = test system: HL-60(TB) leukemia
[15] = test system: HOP-62 NSCLC
[16] = test system: HOP-92 NSCLC
[17] = test system: HS 578T breast
[18] = test system: HT29 colon
[19] = test system: IGROV1 ovarian
[20] = test system: K-562 leukemia
[21] = test system: KM12 colon
[22] = test system: LOX IMVI melanoma
[23] = test system: M14 melanoma
[24] = test system: MALME-3M melanoma
[25] = test system: MCF7 breast
[26] = test system: MDA-MB-231 breast
[27] = test system: MDA-MB-435
[28] = test system: MDA-N
[29] = test system: MOLT-4 leukemia
[30] = test system: NCI-H226 lung
[31] = test system: NCI-H23 lung
[32] = test system: NCI-H460 lung
[33] = test system: NCI/ADR-RES ovarian
[34] = test system: OVCAR-3 ovarian
[35] = test system: OVCAR-4 ovarian
[36] = test system: OVCAR-5 ovarian
[37] = test system: OVCAR-8 ovarian
[38] = test system: PC-3 prostate
[39] = test system: RPMI-8226 leukemia
[40] = test system: RXF 393 renal
[41] = test system: SF-268 CNS
[42] = test system: SF-295 CNS
[43] = test system: SF-539 CNS
[44] = test system: SK-MEL-2 melanoma
[45] = test system: SK-MEL-28 melanoma
[46] = test system: SK-MEL-5 melanoma
[47] = test system: SK-OV-3 ovarian
[48] = test system: SN12C renal
[49] = test system: SNB-19 CNS
[50] = test system: SNB-75 CNS
[51] = test system: SR leukemia
[52] = test system: SW-620 colon
[53] = test system: T-47D breast
[54] = test system: TK-10 renal
[55] = test system: U251 CNS
[56] = test system: UACC-257 melanoma
[57] = test system: UACC-62 melanoma
[58] = test system: UO-31 renal
[59] = test system: NCI-H522 lung

Work on `CC(=O)CC(=O)N1CCOC1=O` yielded a TGI [1] greater than 10 µM, a TGI [2] greater than 10 µM and a TGI [3] greater than 10 µM. It also gave a TGI [4] greater than 10 µM, a TGI [5] greater than 10 µM and a TGI [6] greater than 10 µM. For the same compound, the TGI [7] was greater than 10 µM, the TGI [8] was greater than 10 µM and the TGI [9] was greater than 10 µM. For the same compound, the TGI [10] was greater than 10 µM, the TGI [11] was greater than 10 µM and the TGI [12] was greater than 10 µM. For the same compound, the TGI [13] was greater than 10 µM, the TGI [14] was greater than 10 µM and the TGI [15] was greater than 10 µM. It also gave a TGI [16] greater than 10 µM, a TGI [17] greater than 10 µM and a TGI [18] greater than 10 µM. The TGI [19] was greater than 10 µM, the TGI [20] was greater than 10 µM and the TGI [21] was greater than 10 µM. The TGI [22] was greater than 10 µM, the TGI [23] was greater than 10 µM and the TGI [24] was greater than 10 µM. The TGI [25] was greater than 10 µM, the TGI [26] was greater than 10 µM and the TGI [27] was greater than 10 µM. It also gave a TGI [28] greater than 10 µM, a TGI [29] greater than 10 µM and a TGI [30] greater than 10 µM. The TGI [31] was greater than 10 µM, the TGI [32] was greater than 10 µM and the TGI [33] was greater than 10 µM. For the same compound, the TGI [34] was greater than 10 µM, the TGI [35] was greater than 10 µM and the TGI [36] was greater than 10 µM. For the same compound, the TGI [37] was greater than 10 µM, the TGI [38] was greater than 10 µM and the TGI [39] was greater than 10 µM. It also gave a TGI [40] greater than 10 µM, a TGI [41] greater than 10 µM and a TGI [42] greater than 10 µM. For the same compound, the TGI [43] was greater than 10 µM, the TGI [44] was greater than 10 µM and the TGI [45] was greater than 10 µM. For the same compound, the TGI [46] was greater than 10 µM, the TGI [47] was greater than 10 µM and the TGI [48] was greater than 10 µM. It also gave a TGI [49] greater than 10 µM, a TGI [50] greater than 10 µM and a TGI [51] greater than 10 µM. The TGI [52] was greater than 10 µM, the TGI [53] was greater than 10 µM and the TGI [54] was greater than 10 µM. The TGI [55] was greater than 10 µM, the TGI [56] was greater than 10 µM and the TGI [57] was greater than 10 µM. The TGI [58] was greater than 10 µM.
Work on `CC(C)S1=C2C(=O)CC(C)(C)CC2=Nc2ccccc21` (centres undefined) yielded a TGI [1] greater than 100 µM, a TGI [2] greater than 100 µM and a TGI [3] greater than 100 µM. For the same compound, the TGI [4] was greater than 100 µM, the TGI [5] was greater than 100 µM and the TGI [6] was greater than 100 µM. The TGI [7] was greater than 100 µM, the TGI [8] was greater than 100 µM and the TGI [9] was greater than 100 µM. It also gave a TGI [10] greater than 100 µM, a TGI [11] greater than 100 µM and a TGI [12] greater than 100 µM. The TGI [13] was greater than 100 µM, the TGI [15] was greater than 100 µM and the TGI [16] was greater than 100 µM. For the same compound, the TGI [17] was greater than 100 µM, the TGI [18] was greater than 100 µM and the TGI [19] was greater than 100 µM. The TGI [20] was greater than 100 µM, the TGI [21] was greater than 100 µM and the TGI [22] was greater than 100 µM. It also gave a TGI [23] greater than 100 µM, a TGI [24] greater than 100 µM and a TGI [25] greater than 100 µM. For the same compound, the TGI [26] was greater than 100 µM, the TGI [27] was greater than 100 µM and the TGI [28] was greater than 100 µM. It also gave a TGI [29] greater than 100 µM, a TGI [30] greater than 100 µM and a TGI [31] greater than 100 µM. For the same compound, the TGI [32] was greater than 100 µM, the TGI [59] was greater than 100 µM and the TGI [33] was greater than 100 µM. The TGI [34] was greater than 100 µM, the TGI [35] was greater than 100 µM and the TGI [36] was greater than 100 µM. The TGI [37] was greater than 100 µM, the TGI [38] was greater than 100 µM and the TGI [39] was greater than 100 µM. It also gave a TGI [40] greater than 100 µM, a TGI [41] greater than 100 µM and a TGI [42] greater than 100 µM. It also gave a TGI [44] greater than 100 µM, a TGI [45] greater than 100 µM and a TGI [46] greater than 100 µM. It also gave a TGI [47] greater than 100 µM, a TGI [48] greater than 100 µM and a TGI [49] greater than 100 µM. It also gave a TGI [50] greater than 100 µM, a TGI [51] greater than 100 µM and a TGI [52] greater than 100 µM. It also gave a TGI [53] greater than 100 µM, a TGI [54] greater than 100 µM and a TGI [55] greater than 100 µM. It also gave a TGI [56] greater than 100 µM, a TGI [57] greater than 100 µM and a TGI [58] greater than 100 µM.
Work on `CCOC(=O)c1sc2nc(SC)nc3c2c1NCN3c1ccccc1Cl` yielded a TGI [1] greater than 100 µM, a TGI [2] greater than 100 µM and a TGI [3] greater than 100 µM. It also gave a TGI [4] greater than 100 µM, a TGI [5] greater than 100 µM and a TGI [6] greater than 100 µM. For the same compound, the TGI [7] was greater than 100 µM, the TGI [8] was greater than 100 µM and the TGI [9] was greater than 100 µM. The TGI [11] was greater than 100 µM, the TGI [12] was greater than 100 µM and the TGI [13] was greater than 100 µM. The TGI [15] was greater than 100 µM, the TGI [16] was 57.6 µM and the TGI [17] was 73.3 µM. For the same compound, the TGI [18] was greater than 100 µM, the TGI [19] was greater than 100 µM and the TGI [20] was greater than 100 µM. For the same compound, the TGI [21] was greater than 100 µM, the TGI [22] was greater than 100 µM and the TGI [23] was greater than 100 µM. The TGI [24] was 74.4 µM, the TGI [26] was greater than 100 µM and the TGI [27] was greater than 100 µM. For the same compound, the TGI [28] was greater than 100 µM, the TGI [29] was greater than 100 µM and the TGI [30] was greater than 100 µM. For the same compound, the TGI [31] was greater than 100 µM, the TGI [32] was greater than 100 µM and the TGI [59] was 52.7 µM. It also gave a TGI [33] greater than 100 µM, a TGI [34] greater than 100 µM and a TGI [35] greater than 100 µM. The TGI [36] was greater than 100 µM, the TGI [37] was greater than 100 µM and the TGI [38] was greater than 100 µM. The TGI [39] was greater than 100 µM, the TGI [40] was 73 µM and the TGI [41] was greater than 100 µM. The TGI [42] was greater than 100 µM, the TGI [44] was greater than 100 µM and the TGI [45] was greater than 100 µM. It also gave a TGI [46] greater than 100 µM, a TGI [47] greater than 100 µM and a TGI [48] greater than 100 µM. For the same compound, the TGI [49] was greater than 100 µM, the TGI [50] was 64.9 µM and the TGI [52] was greater than 100 µM. The TGI [53] was 60.3 µM, the TGI [54] was greater than 100 µM and the TGI [55] was greater than 100 µM. For the same compound, the TGI [56] was greater than 100 µM, the TGI [57] was greater than 100 µM and the TGI [58] was greater than 100 µM.
